According to patent US8258140B2 (Astrazeneca AB, priority 2009, dated 2012):

target: T1, Androgen Receptor (AR) in the LNCaP prostate carcinoma cell line (Homo sapiens, UniProt P10275, T878A); assay: LNCaP Androgen Receptor Down-Regulation Cell Assay (immunofluorescence end point); type: cell-based; conditions: LNCaP cells, compound incubation 20-22 hours, concentration giving 50% reduction of the AR signal
T1 construct: cell based immuno-fluorescence assay using the LNCaP prostate epithelial cell line; host or cells: LNCaP clone FGC
T1 sequence (P10275 1-920 T878A): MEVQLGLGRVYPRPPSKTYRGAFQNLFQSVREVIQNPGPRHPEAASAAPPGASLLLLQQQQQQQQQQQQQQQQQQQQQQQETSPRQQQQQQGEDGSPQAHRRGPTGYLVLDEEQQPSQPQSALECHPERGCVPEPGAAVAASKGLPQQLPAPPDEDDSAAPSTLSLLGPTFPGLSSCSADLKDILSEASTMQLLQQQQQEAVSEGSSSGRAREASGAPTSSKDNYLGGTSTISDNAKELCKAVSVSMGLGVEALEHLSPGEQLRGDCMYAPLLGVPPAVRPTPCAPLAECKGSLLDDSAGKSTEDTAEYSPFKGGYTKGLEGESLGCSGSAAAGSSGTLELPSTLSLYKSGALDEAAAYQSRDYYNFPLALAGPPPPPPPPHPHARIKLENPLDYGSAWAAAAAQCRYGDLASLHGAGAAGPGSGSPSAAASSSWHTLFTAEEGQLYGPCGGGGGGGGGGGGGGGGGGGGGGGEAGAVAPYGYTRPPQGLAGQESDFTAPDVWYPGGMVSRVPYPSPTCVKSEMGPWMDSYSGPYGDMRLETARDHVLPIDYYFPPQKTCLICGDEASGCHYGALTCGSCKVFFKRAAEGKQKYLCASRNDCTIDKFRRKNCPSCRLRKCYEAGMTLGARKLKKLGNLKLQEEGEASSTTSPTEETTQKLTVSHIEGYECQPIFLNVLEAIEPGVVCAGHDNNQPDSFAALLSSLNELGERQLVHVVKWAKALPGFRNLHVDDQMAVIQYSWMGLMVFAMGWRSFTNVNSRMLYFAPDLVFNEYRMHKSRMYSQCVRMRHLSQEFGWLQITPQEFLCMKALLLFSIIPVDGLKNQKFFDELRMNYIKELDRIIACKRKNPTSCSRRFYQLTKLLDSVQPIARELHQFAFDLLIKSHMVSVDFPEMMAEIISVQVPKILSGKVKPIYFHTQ
Experimental: The ability of compounds to reduce Androgen Receptor (AR) numbers was assessed in a cell based immuno-fluorescence assay using the LNCaP prostate epithelial cell line.
This immunofluorescence end point assay measures the ability of a test compound to down-regulate and reduce measured levels of the AR in the LNCaP prostate carcinoma cell line (LNCaP clone FGC (CRL-1740) obtained from the American Type Culture Collection (ATCC)).
LNCaP cells were cultured in Growth Medium (phenol red free Roswell Park Memorial Institute (RPMI) 1640 (Invitrogen Code no. 11835-063) containing 2 mM L-Glutamine (Invitrogen Code no. 25030-024) and 1% (v/v) Penicillin/Streptomycin (10000 units/ml Penicillin and 10000 μg/ml of Streptomycin utilising penicillin G (sodium salt) and streptomycin sulphate: prepared in normal saline, Invitrogen Code no. 15140122) and 10% (v/v) foetal bovine serum (FBS)) in a 5% CO2 air incubator at 37° C. Cells for assay were harvested from T175 stock flasks by washing once in PBS (phosphate buffered saline, pH 7.4) (Invitrogen Code no. 14190-094) and harvested using 5 mls of 1× Trypsin/ethylaminediaminetetraacetic acid (EDTA) (10× Trypsin-EDTA, 5.0 g/L Trypsin, 2.0 g/L of EDTA.4Na and 8.5 g/L of NaCl, without Phenol Red, Invitrogen Code no. 15400-054) diluted in PBS solution. A 5 ml volume of Growth Medium was added to each flask (as above except that 5% (v/v) charcoal stripped FBS (HyClone Code no. SH30068.03) was included instead of 10% (v/v) FBS). Cells were syringed at least twice using a sterile 18 G×1.5″ (1.2×40 mm) broad gauge needle and cell density was measured using a haemocytometer. Cells were further diluted in Growth Medium plus 5% (v/v) charcoal stripped FBS and seeded at a density of 6.5×10^3 cells per well (in 90 ul) into transparent, black, tissue culture treated 96 well plates (Packard, No. 6005182).
Test data reported herein was generated using two different compounds preparation and dosing methods. In method (1) a 10 mM compound stock solution in 100% (v/v) DMSO was serially diluted in 4-fold steps in 100% (v/v) DMSO using a Thermo Scientific Matrix SerialMate. The diluted compounds were then further diluted 1 in 30 in assay media using a Thermo Scientific Matrix PlateMate and a 10 μl aliquot of this dilution was dosed to cells manually using a multi-channel pipette. In method (2) starting with a 10 mM compound stock solution, the Labcyte Echo 550 was used to generate a compound concentration response set diluted in 30 μl of assay media. The Echo 550 is a liquid handler that uses acoustic technology to perform direct microplate-to-microplate transfers of DMSO compound solutions. The system can be programmed to transfer volumes as low as 2.5 nL in multiple increments between microplates and in so doing generates a serial dilution of compound which is then back-filled to normalise the DMSO concentration across the dilution range. A 10 μl volume of diluted compound is then dosed to cells using a Thermo Scientific Matrix PlateMate.
Plates were incubated overnight at 37° C., 5% CO2. Wells were then dosed with compound prepared by one of the 2 methods above and further incubated for 20-22 hours at 37° C., 5% CO2. Plates were fixed by the addition of 20 μl of 10% (v/v) formaldehyde solution (in PBS) to each well (final formaldehyde conc.=1.67% (v/v)) and left at room temperature for 10 mins. This fixative solution was removed and cells were washed with 250 μl of PBS/0.05% (v/v) Tween 20 (PBST) using an automated plate washer. This process was then repeated twice more.
Immunostaining was performed at room temperature. Cells were permeabilised by the addition of 35 μl of PBS containing 0.5% Tween 20 and incubated for 1 hour at room temperature. Permeabilisation solution was removed and cells were washed with 250 μl of PBST using an automated plate washer. This process was then repeated twice more. […]

| Compound | IC50 [µM] |
| --- | --- |
| CC(=O)N1CCN([C@@H](C)COc2ccc(C3CCN(C4=Nn5c(nnc5C(F)(F)F)CC4)CC3)cc2)CC1 (single isomer, unassigned) [Example 54] | 0.14 |
| CS(=O)(=O)N1CCN(CCCOc2ccc(C3CCN(C4=Nn5c(nnc5C(F)(F)F)CC4)CC3)cc2)CC1 [Example 28, 6-[4-(4-{3-[4-(methylsulfonyl)piperazin-1-yl]propoxy}phenyl)piperidin-1-yl]-3-(trifluoromethyl)-7,8-dihydro[1,2,4]triazolo[4,3-b]pyridazine] | 1 |
| FC(F)(F)c1nnc2n1N=C(N1CCN(Cc3c[nH]c4ccccc34)CC1)CC2 [Example 11, 6-[4-(1H-indol-3-ylmethyl)piperazin-1-yl]-3-(trifluoromethyl)-7,8-dihydro[1,2,4]triazolo[4,3-b]pyridazine] | 8.6 |
| C[C@@H]1C(=O)N(C)CCN1CCOc1ccc(C2CCN(C3=Nn4c(nnc4C(F)(F)F)CC3)CC2)cc1 [Example 49, (3R)-1,3-dimethyl-4-[2-(4-{1-[3-(trifluoromethyl)-7,8-dihydro[1,2,4]triazolo[4,3-b]pyridazin-6-yl]piperidin-4-yl}phenoxy)ethyl]piperazin-2-one] | 0.045 |
| Fc1cccc(CN2CCN(C3=Nn4c(nnc4C(F)(F)F)CC3)CC2)c1F [Example 9, 6-[4-(2,3-difluorobenzyl)piperazin-1-yl]-3-(trifluoromethyl)-7,8-dihydro[1,2,4]triazolo[4,3-b]pyridazine] | 4.1 |
| FC(F)(F)c1cccc(CN2CCN(C3=Nn4c(nnc4C(F)(F)F)CC3)CC2)c1 [Example 8, 3-(trifluoromethyl)-6-{4-[3-(trifluoromethyl)benzyl]piperazin-1-yl}-7,8-dihydro[1,2,4]triazolo[4,3-b]pyridazine] | 2.7 |
| CCCCC(=O)N1CCN(CCOc2ccc(C3CCN(C4=Nn5c(nnc5C(F)(F)F)CC4)CC3)cc2)CC1 [Example 25, 6-(4-{4-[2-(4-pentanoylpiperazin-1-yl)ethoxy]phenyl}piperidin-1-yl)-3-(trifluoromethyl)-7,8-dihydro[1,2,4]triazolo[4,3-b]pyridazine] | 0.93 |
| COCCN(C)C(=O)CCCOc1ccc(C2CCN(C3=Nn4c(nnc4C(F)(F)F)CC3)CC2)cc1 [Example 23, N-(2-methoxyethyl)-N-methyl-4-(4-{1-[3-(trifluoromethyl)-7,8-dihydro[1,2,4]triazolo[4,3-b]pyridazin-6-yl]piperidin-4-yl}phenoxy)butanamide] | 1.3 |
| N#Cc1ccc2[nH]cc(CN3CCN(C4=Nn5c(nnc5C(F)(F)F)CC4)CC3)c2c1 [Example 13, 3-({4-[3-(trifluoromethyl)-7,8-dihydro[1,2,4]triazolo[4,3-b]pyridazin-6-yl]piperazin-1-yl}methyl)-1H-indole-5-carbonitrile] | > 11 |
| CCN1CCN(CCOc2ccc(C3CCN(C4=Nn5c(nnc5C(F)(F)F)CC4)CC3)cc2)CC1=O [Example 46, 1-ethyl-4-[2-(4-{1-[3-(trifluoromethyl)-7,8-dihydro[1,2,4]triazolo[4,3-b]pyridazin-6-yl]piperidin-4-yl}phenoxy)ethyl]piperazin-2-one] | 1.5 |
| C[C@@H](COc1ccc(C2CCN(C3=Nn4c(nnc4C(F)(F)F)CC3)CC2)cc1)N1CCN(C)C(=O)C1 (single isomer, unassigned) [Example 55] | 0.18 |
| 6-(4-{4-[2-(1H-imidazol-1-yl)ethoxy]phenyl}piperazin-1-yl)-3-(trifluoromethyl)-7,8-dihydro[1,2,4]triazolo[4,3-b]pyridazine [Example 38] | 7.8 |
| CC(=O)N1CCCN(CCOc2ccc(C3CCN(C4=Nn5c(nnc5C(F)(F)F)CC4)CC3)cc2)CC1 [Example 48, 6-(4-{4-[2-(4-acetyl-1,4-diazepan-1-yl)ethoxy]phenyl}piperidin-1-yl)-3-(trifluoromethyl)-7,8-dihydro[1,2,4]triazolo[4,3-b]pyridazine] | 0.7 |
